Results as given in US20250221979A1, “NOVEL HETEROCYCLIC COMPOUND” (SHOUYAO HOLDINGS (BEIJING) CO., LTD., priority 2022, published 2025).
pIC50: −log10 of the molar value.

Legend:
human MAT2A enzyme = human MAT2A enzyme (Homo sapiens (Human), UniProt P31153); experiment: In vitro enzymatic inhibition activity assay on MAT2A (PiColorLock phosphate detection); assay type: biochemical; conditions: purified human MAT2A 10 nM, ATP 50 μM, L-methionine 100 μM, 6 h at 23° C.; read-out: MAT2A inhibitory activity IC50
Summary of the method: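 Purified human MAT2A (10 nM) turned L-methionine (100 μM) and ATP (50 μM) into SAM in Tris-HCl pH 7.5 buffer with MgCl2, KCl and DTT for 6 h at 23 °C. Released phosphate was read colorimetrically at 630 nm. IC50 was fitted from an 8-point, 10-fold dilution series.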

HCT116 MTAP−/− cells = experiment: Inhibition of proliferation of HCT116 MTAP-/- cells (Cell-Titer Glo, 7 days); assay type: cell-based; conditions: Homo sapiens, HCT-116, 168 h (7 days) incubation, read-out: HCT116 MTAP−/− antiproliferative activity IC50
Protocol: The MTAP deficient human colorectal cancer cell line HCT116 MTAP−/− was constructed using CRJSPR Cas9 technology and cultured in DMEM medium supplemented with 10% fetal bovine serum (FBS, purchased from Gibco) and 1% penicillin/streptomycin (P/S, purchased from Thermo Fisher Scientific) at 37° C. with 5% CO2. HCT116 MTAP−/− cells were plated in 96 well plates (#3917, purchased from CORNING) at a concentration of 200 cells/195 μL/well. After 24 h, the compounds were diluted in a 3-fold gradient starting at 10 mM with 100% DMSO (for a total of 10 concentrations), then 4 μL of each concentration was added to 96 μL of serum-free DMEM medium for dilution. 5 μL of diluted compound at each concentration was added to the plated cell suspension and the compound was incubated with the cells for 168 h (7 days) in a cell culture incubator. The medium was then removed and 25 μL of Cell-Titer Glo® (G7570, purchased from Promega) reagent was added. Chemiluminescence values were read on a BMG and data were processed using GraphPad Prism software to calculate IC50 values for inhibition of cell proliferation by the compounds.

[1] = In vivo pharmacokinetic study in CD-1 mice; conditions: male, mouse, single oral gavage dose of 10 mg/kg, plasma
Protocol: In vivo pharmacokinetic study in CD-1 mice
Twenty-four healthy adult male mice from Beijing Vital River Laboratory Animal Technology Co., Ltd. were used in the study.
CD-1 mice were administered with a single oral gavage dose of 10 mg/kg in a volume of 10 mL/kg at a concentration of 1 mg/mL.
The test article in this project is generally suspended in 0.5% hydroxypropylmethyl cellulose, 0.1% Tween 80 (W/V/V) aqueous solution at the concentration of 1 mg/mL.
Animals dosed by gavage were fasted overnight before the experiment from 16 h before dosing to 4 h after dosing. Blood was collected at 0.25, 0.5, 1, 2, 4, 6, 8, and 24 h after administration successively. The animals were lightly anesthetized with isoflurane. About 0.2 mL of whole blood was collected from the orbital venous plexus using a glass blood collection tube and placed in a sodium heparin anticoagulant tube. The sample was centrifuged at 5200 rpm for 5 min at 4° C. The plasma was transferred to a centrifuge tube and stored at −80° C. until analysis.
Analysis of plasma samples Test compounds and internal standards (warfarin or propranolol) were extracted from mouse plasma using an acetonitrile protein precipitation method and the extracts were analyzed by LC/MS/MS. The measured plasma concentration-time data of individual animals were analyzed using the non-compartmental model of WinNonlin (version 5.2.1, Pharsight) software to obtain the corresponding pharmacokinetic parameters: maximum (peak) plasma drug concentration Cmax; Time to peak Tmax; Half-life T1/2 and area under the plasma concentration-time curve extrapolated to infinite time AUC0-inf.

Chain of human MAT2A enzyme (P31153 whole entry): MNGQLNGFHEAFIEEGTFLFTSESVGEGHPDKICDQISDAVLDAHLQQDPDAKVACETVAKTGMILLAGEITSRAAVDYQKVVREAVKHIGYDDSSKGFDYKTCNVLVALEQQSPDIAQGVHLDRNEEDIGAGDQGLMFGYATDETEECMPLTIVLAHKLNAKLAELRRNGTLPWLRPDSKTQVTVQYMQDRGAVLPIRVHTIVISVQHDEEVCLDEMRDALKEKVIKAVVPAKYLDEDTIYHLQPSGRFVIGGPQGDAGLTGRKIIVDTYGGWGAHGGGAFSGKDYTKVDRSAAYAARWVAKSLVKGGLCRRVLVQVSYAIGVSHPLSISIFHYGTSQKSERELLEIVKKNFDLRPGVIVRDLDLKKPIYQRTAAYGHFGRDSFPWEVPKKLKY

| Compound | pIC50 (human MAT2A enzyme) | pIC50 (HCT116 MTAP−/− cells) | AUC [1] | Cmax [1] | Tmax [1] | half-life [1] |
| --- | --- | --- | --- | --- | --- | --- |
| COC(=O)c1c(N)c2ccc(C(F)(F)F)cc2n(-c2ccc(C(C)O)cc2)c1=O (stereo not shown) [Example 122, methyl 4-amino-1-(4-(1-hydroxyethyl)phenyl)-2-oxo-7-(trifluoromethyl)-1,2-dihydroquinoline-3-carboxylate] | 8.66 | 7.30 |  |  |  |  |
| COC(=O)c1c(N)c2ccc(C(F)(F)F)nc2n(-c2ccc(C)nc2)c1=O [Example 207, methyl 4-amino-1-(6-methylpyridin-3-yl)-2-oxo-7-(trifluoromethyl)-1,2-dihydro-1,8-naphthyridine-3-carboxylate] | 8.66 | 7.27 |  |  |  |  |
| COC(=O)c1c(N)c2ccc(Br)nc2n(-c2cccc3cnccc23)c1=O [Example 221, methyl 4-amino-7-bromo-1-(isoquinolin-5-yl)-2-oxo-1,2-dihydro-1,8-naphthyridine-3-carboxylate] | 8.57 | 7.38 |  |  |  |  |
| COC(=O)c1c(N)c2ccc(C(F)(F)F)nc2n(-c2ccc(Cl)nc2)c1=O [Example 203, methyl 4-amino-1-(6-chloropyridin-3-yl)-2-oxo-7-(trifluoromethyl)-1,2-dihydro-1,8-naphthyridine-3-carboxylate] | 8.90 | 7.60 |  |  |  |  |
| COC(=O)c1c(N)c2ccc(Br)nc2n(-c2cccc3c(Cl)nccc23)c1=O [Example 240, methyl 4-amino-1-(1-chloroisoquinolin-5-yl)-7-bromo-2-oxo-1,2-dihydro-1,8-naphthyridine-3-carboxylate] | 8.76 | 7.21 |  |  |  |  |
| COC(=O)c1c(N)c2ccc(I)cc2n(-c2cccc3cnccc23)c1=O [Example 199, methyl 4-amino-7-iodo-1-(isoquinolin-5-yl)-2-oxo-1,2-dihydroquinoline-3-carboxylate] | 8.45 | 7.31 | 24600 ng·h/mL | 4270 ng/mL | 2.5 h | 2.98 h |
| COC(=O)c1c(N)c2ccc(C(F)(F)F)nc2n(-c2ccc(OC)nc2)c1=O [Example 208, methyl 4-amino-1-(6-methoxypyridin-3-yl)-2-oxo-7-(trifluoromethyl)-1,2-dihydro-1,8-naphthyridine-3-carboxylate] | 8.39 | 7.15 |  |  |  |  |
| COC(=O)c1c(N)c2ccc(Br)cc2n(-c2ccc(C(C)O)cc2)c1=O (stereo not shown) [Example 200, methyl 4-amino-7-bromo-1-(4-(1-hydroxyethyl)phenyl)-2-oxo-1,2-dihydro quinoline-3-carboxylate] | 8.79 | 7.63 |  |  |  |  |
| COC(=O)c1c(N)c2ccc(Br)nc2n(-c2ccc(C(C)O)cc2)c1=O (stereo not shown) [Example 266, methyl 4-amino-1-(4-(1-hydroxyethyl)phenyl)-7-bromo-2-oxo-1,2-dihydro-1,8-naphthyridine-3-carboxylate] | 8.63 | 7.49 |  |  |  |  |
| COC(=O)c1c(N)c2ccc(Br)cc2n(-c2ccc([C@@H](C)O)cc2)c1=O [Example 340, methyl 4-amino-7-bromo-1-(4-(1-(R)-hydroxyethyl)phenyl)-2-oxo-1,2-dihydroquinoline-3-carboxylate] | 8.84 | 8.68 |  |  |  |  |
| COC(=O)c1c(N)c2ccc(C(F)(F)F)nc2n(-c2cccc3cnccc23)c1=O [Example 174, methyl 4-amino-1-(isoquinolin-5-yl)-2-oxo-7-(trifluoromethyl)-1,2-dihydro-1,8-naphthyridine-3-carboxylate] | 8.29 | 7.10 | 24500 ng·h/mL | 9540 ng/mL | 0.5 h | 3.08 h |
| COC(=O)c1c(N)c2ccc(Br)cc2n(-c2ccc(Cl)c3cnccc23)c1=O [Example 176, methyl amino-1-(8-chloroisoquinolin-5-yl)-7-bromo-2-oxo-1,2-dihydroquinoline-3-carboxylate] | 8.56 | 7.41 |  |  |  |  |
| COC(=O)c1c(N)c2ccc(C(F)(F)F)cc2n(-c2ccc(C(C)O)nc2)c1=O (stereo not shown) [Example 175, methyl 4-amino-1-(6-(1-hydroxyethyl)pyridin-3-yl)-2-oxo-7-(trifluoromethyl)-1,2-dihydroquinoline-3-carboxylate] | 8.20 | 7.27 |  |  |  |  |
| COC(=O)c1c(N)c2ccc(C(F)(F)F)cc2n(-c2ccc(CO)cc2)c1=O [Example 86, methyl 4-amino-2-oxo-1-(4-(hydroxymethyl)phenyl)-7-(trifluoromethyl)-1,2-dihydroquinoline-3-carboxylate] | 8.63 | 7.07 |  |  |  |  |
| COC(=O)c1c(N)c2ccc(Br)cc2n(-c2cccc3cnccc23)c1=O [Example 154, methyl 4-amino-7-bromo-1-(isoquinolin-5-yl)-2-oxo-1,2-dihydroquinoline-3-carboxylate] | 8.52 | 7.45 |  |  |  |  |

The next compounds have a higher pIC50 (human MAT2A enzyme) than those just listed; values first:

| pIC50 (human MAT2A enzyme) | pIC50 (HCT116 MTAP−/− cells) | AUC [1] | Cmax [1] | Tmax [1] | half-life [1] | Compound |
| --- | --- | --- | --- | --- | --- | --- |
| 8.93 | 7.51 |  |  |  |  | COC(=O)c1c(N)c2ccc(C(F)(F)F)nc2n(-c2ccc(Cl)cc2)c1=O [Example 173, methyl 4-amino-1-(4-chlorophenyl)-2-oxo-7-(trifluoromethyl)-1,2-dihydro-1,8-naphthyridine-3-carboxylate] |
| 9.03 | 7.33 |  |  |  |  | COC(=O)c1c(N)c2ccc(Br)nc2n(-c2ccc(Cl)cc2)c1=O [Example 265, methyl 4-amino-7-bromo-1-(4-chlorophenyl)-2-oxo-1,2-dihydro-1,8-naphthyridine-3-carboxylate] |
| 9.11 | 7.78 |  |  |  |  | COC(=O)c1c(N)c2ccc(C(F)(F)F)cc2n(-c2ccc([C@@H](C)O)cc2)c1=O [Example 272, methyl 4-amino-1-(4-(1-(R)-hydroxyethyl)phenyl)-2-oxo-7-(trifluoromethyl)-1,2-dihydroquinoline-3-carboxylate] |
| 9.07 | 7.33 |  |  |  |  | COC(=O)c1c(N)c2ccc(Br)nc2n(-c2ccc3ccncc3c2)c1=O [Example 244, methyl 4-amino-7-bromo-1-(isoquinolin-7-yl)-2-oxo-1,2-dihydro-1,8-naphthyridine-3-carboxylate] |
| 8.92 | 8.82 |  |  |  |  | COC(=O)c1c(N)c2ccc(OC(F)(F)F)cc2n(-c2ccc([C@@H](C)O)cc2)c1=O [Example 378, methyl 4-amino-1-(4-((1R)-1-hydroxyethyl)phenyl)-2-oxo-7-(trifluoromethoxy)-1,2-dihydroquinoline-3-carboxylate] |
| 9.11 | 7.09 | 24100 ng·h/mL | 2320 ng/mL | 1.67 h | 8.44 h | COC(=O)c1c(N)c2ccc(Br)cc2n(-c2ccc(N)cc2)c1=O [Example 147, methyl 4-amino-1-(4-aminophenyl)-7-bromo-2-oxo-1,2-dihydroquinoline-3-carboxylate] |
| 9.08 | 7.06 |  |  |  |  | COC(=O)c1c(N)c2ccc(Br)cc2n(-c2ccc3c(c2)OCO3)c1=O [Example 92, methyl 4-amino-1-(benzo[d](1,3)dioxol-5-yl)-7-bromo-2-oxo-1,2-dihydroquinoline-3-carboxylate] |
| 9.85 | 7.85 |  |  |  |  | COC(=O)c1c(N)c2ccc(I)cc2n(-c2ccc(N)cc2)c1=O [Example 252, methyl 4-amino-1-(4-aminophenyl)-7-iodo-2-oxo-1,2-dihydro quinoline-3-carboxylate] |
